Assays:
[1] = system: Brain cancer (U-87MG) cells; assay: Cell death by combination treatment with anti-cancer drug (MTT); assay type: cell-based; settings: Homo sapiens, ADP-ribose 1.6 μM in combination with bevacizumab, 24 hours, P<0.001
Protocol: 3×10^3 Brain cancer (U-87MG), lung cancer (H1975), pancreatic cancer (Aspc-1), liver cancer (Hep G2), breast cancer (MDA-MB-231), and colon cancer (HCT116) cells were cultured in a 96-well plate for 24 hours under conditions of 37° C. and 5% Ca2, respectively. […] After the treatment was terminated, the cells were cultured for 24 hours under conditions of 37° C. and 5% CO2 again, 10 μl of 3-(4,5-dimethylthiazol-2-yl)-2,5-diphenyltetrazolium bromide reagent was added to each well and reacted for 1 hour. After the reaction was completed, the reagent was removed, 200 μl of dimethyl sulfoxide was added to each well, and the absorbance was measured to compare the degree of cell death.
3×10^3 Brain cancer (U-87MG) cells were cultured in a 96-well plate for 24 hours under conditions of 37° C. and 5% CO2, treated with ADP-ribose at a concentration of 1.6 μM and bevacizumab at 15 mM, individually or in combination, and cultured for 24 hours under conditions of 37° C. and 5% CO2 again. Then, 10 μl of 3-(4,5-dimethylthiazol-2-yl)-2,5-diphenyltetrazolium bromide reagent was added to each well and reacted for 1 hour. After the reaction was completed, the reagent was removed, 200 μl of dimethyl sulfoxide was added to each well, and the absorbance was measured to confirm cell viability.

AsPC-1 cells [2] = assay: Cancer cell death verification (MTT cell viability); assay type: cell-based
Protocol: (§3) 3×10^3 Brain cancer (U-87MG), lung cancer (H1975), pancreatic cancer (Aspc-1), liver cancer (Hep G2), breast cancer (MDA-MB-231), colon cancer (HCT116), kidney cancer (Caki-1), gastric cancer (SNU-1) and ovarian cancer (OVCAR-3) cells were cultured in a 96-well plate under conditions of 37° C. and 5% CO2 for 24 hours, and then each cancer cell was treated with ADP-ribose at each concentration. After culturing for 24 hours under conditions of 37° C. and 5% CO2 again, 10 μl of 3-(4,5-dimethylthiazol-2-yl)-2,5-diphenyltetrazolium bromide reagent was added to each well and reacted for 1 hour. After the reaction was completed, the reagent was removed, 200 μl of dimethyl sulfoxide was added to each well, and the absorbance was measured to determine the concentration of half-lethality and maximum lethality compared to untreated cells.
3×10^3 AsPC-1 cells were cultured in a 96-well plate for 24 hours under conditions of 37° C. and 5% CO2, treated with ADP-ribose at concentrations of 0.125, 0.25, 0.5, 1, 2, 4, 8, 16, and 32 μM, respectively, and cultured again for 24 hours under conditions of 37° C. and 5% CO2. Then, 10 μl of 3-(4,5-dimethylthiazol-2-yl)-2,5-diphenyltetrazolium bromide reagent was added to each well and reacted for 1 hour. After the reaction was completed, the reagent was removed, 200 μl of dimethyl sulfoxide was added to each well, and the absorbance was measured to confirm cell viability.

U-87MG cells [3] = assay: Cell death by combination treatment of ADP-ribose and radiation (MTT); assay type: cell-based; settings: 8 μM ADP-ribose in combination with 2 Gy radiation, 24 hours, P<0.001, 2 Gy alone about 88%
Protocol: 3×10^3 Brain cancer (U-87MG) cells were cultured in a 96-well plate for 24 hours under conditions of 37° C. and 5% CO2, treated with 8 μM of ADP-ribose and 2 or 5 Gy dose of radiation individually or in combination, and cultured for 24 hours under conditions of 37° C. and 5% CO2 again. Then, 10 μl of 3-(4,5-dimethylthiazol-2-yl)-2,5-diphenyltetrazolium bromide reagent was added to each well and reacted for 1 hour. After the reaction was completed, the reagent was removed, 200 μl of dimethyl sulfoxide was added to each well, and the absorbance was measured to confirm cell viability.

Caki-1 cells [4] = assay: Cancer cell death verification (MTT cell viability); assay type: cell-based
Protocol: as §3
Then, 10 μl of 3-(4,5-dimethylthiazol-2-yl)-2,5-diphenyltetrazolium bromide reagent was added to each well and reacted for 1 hour. After the reaction was completed, the reagent was removed, 200 μl of dimethyl sulfoxide was added to each well, and the absorbance was measured to confirm cell viability.

Caki-1 cells [5] = assay: ADP-ribose quantitative analysis (ELISA) in cancer cells; assay type: cell-based; settings: 16 μM ADP-ribose, 24 hours, P<0.001
Protocol: (§1) After culturing, the culture medium was removed, the cells were washed with phosphate-buffered saline, and then RIPA buffer was added and the cells were left on ice for 20 minutes. After scraping the cells, the cells were put in a centrifuge tube and centrifuged for 10 minutes at 10,000 g and 4° C. The supernatant was obtained, and 1% SDS was added, and then the reaction product was boiled at 100° C. for 5 minutes and cooled on ice. The supernatant was centrifuged again at 10,000 g and 4° C. for 10 minutes to obtain the final supernatant, and ADP-ribose was quantitatively analyzed and compared using an ELISA analysis kit (Cell Biolabs, Inc., San Diego, CA, USA).
(§2) The medium of the cultured cells was removed, and the supernatant prepared by treatment with RIPA buffer and 1% sodium dodecyl sulfate (SDS) was used for ELISA analysis to detect and analyze ADP-ribose.

U-87MG cells [6] = assay: as above; assay type: cell-based; settings: 8 μM ADP-ribose, 24 hours, P<0.001
Protocol: as §1, §2

H1975 cells = assay: as above; assay type: cell-based; settings: 4 μM ADP-ribose, 24 hours, P<0.001
Protocol: as §1, §2

AsPC-1 cells [7] = assay: as above; assay type: cell-based; settings: 8 μM ADP-ribose, 24 hours, P<0.001
Protocol: as §1, §2

HCT116 cells = assay: as above; assay type: cell-based; settings: 8 μM ADP-ribose, 24 hours, P<0.001
Protocol: as §1, §2

[8] = system: Breast cancer (MDA-MB-231) cells; assay: Xenograft model, combination with radiation, tumor volume; assay type: in vivo, BALB/c nude mice; settings: MDA-MB-231 xenograft
Protocol: Brain cancer (U-87MG), pancreatic cancer (AsPC-1), breast cancer (MDA-MB-231), or kidney cancer (Caki-1) cells (1×10^7 cells) were inoculated into 5-week-old BALB/c nude mice on the back flank, respectively. Then, when tumors were grown to a volume of approximately 150 mm^3, the mice were divided into three groups: the control group (Control), 2 Gy dose of radiation alone, and a combination administration of 2 Gy dose of radiation+10 mg/kg of ADP-ribose (subcutaneous administration, 3 times a week). The irradiation was performed with an X-Rad 320 irradiator (Precision X-ray, North Branford, CT, USA), wherein the mice were placed by maintaining an appropriate distance from the radiation source for irradiation with a predetermined radiation dose. A lead shield was used to protect the body parts or organs from exposure to radiation, other than the cancerous part of the mouse. The irradiation was performed with a total of 2 Gy of radiation fractionated into two doses of 1 Gy each (for 2 days) at a dose rate of 300 kVp and 150 cGy/min using an X-ray beam filter composed of 12.5 mA and 2.0 mm Al. The tumor size was measured every 6 days using a digital caliper, and the results of changes in tumor volume were compared by the group.
Breast cancer (MDA-MB-231) cells (1×10^7) were inoculated into 5-week-old BALB/c nude mice on the back flank, and the mice were divided into three groups: the control group (Control), 2 Gy dose of radiation alone, and combination administration of 2 Gy dose radiation+20 mg/kg of ADP-ribose. When the tumors were grown to a volume of approximately 150 mm^3, 2 Gy dose of radiation was irradiated twice at 1 Gy each, and 20 mg/kg of ADP-ribose was injected subcutaneously 3 times a week. The tumor size was measured using a digital caliper, and the results of changes in tumor volume were compared by the group.

U-87MG cells [9] = assay: Change over time in intracellular ADP-ribose, radiation versus ADP-ribose treatment (ELISA); assay type: cell-based; settings: 8 μM ADP-ribose, even after 24 hours, after radiation back to untreated level at 24 hours
Protocol: Brain cancer (U-87MG), kidney cancer (Caki-1), pancreatic cancer (AsPC-1), or breast cancer (MDA-MB-231) cells were cultured in a 6-well plate, respectively, and the cells were divided into the untreated group, the radiation-treated group, and the ADP-ribose-treated group. Irradiation was performed using an X-Rad 320 irradiator (Precision X-ray, North Branford, CT, USA), and cancer cells were treated with a total of 1, 2, and 5 Gy at a dose rate of 300 kVp and 150 cGy/min using an X-ray beam filter composed of 12.5 mA and 2.0 mm Al, respectively. Before treatment and at 4, 8, 16, and 24 hours after treatment, the medium was removed, the cells were washed with phosphate-buffered saline, and then RIPA buffer was added and the products were left on ice for 20 minutes. After scraping the cells, the cells were put in a centrifuge tube and centrifuged for 10 minutes at 10,000 g and 4° C. The supernatant was obtained, and 1% SDS was added, and then the reaction product was boiled at 100° C. for 5 minutes and cooled on ice. The supernatant was centrifuged again at 10,000 g and 4° C. for 10 minutes to obtain the final supernatant, and ADP-ribose was quantitatively analyzed using an ELISA analysis kit (Cell Biolabs, Inc., San Diego, CA, USA). […]

MDA-MB-231 cells = assay: ADP-ribose quantitative analysis (ELISA) in cancer cells; assay type: cell-based; settings: 16 μM ADP-ribose, 24 hours, P<0.001
Protocol: as §1
5×10^5 MDA-MB-231 cells were divided into the untreated group and 16 μM ADP-ribose-treated group and cultured in Leibovitz's L-15 medium supplemented with 10% fetal calf serum+100 units/ml penicillin+100 μg/ml streptomycin under conditions of 37° C. and 5% CO2 for 24 hours. The medium of the cultured cells was removed, and the supernatant prepared by treatment with RIPA buffer and 1% sodium dodecyl sulfate (SDS) was used for ELISA analysis to detect and analyze ADP-ribose.

[10] = ADP-ribose 20 mg/kg s.c. + 2 Gy radiation, P<0.001

With `Nc1ncnc2c1ncn2[C@@H]1O[C@H](COP(=O)(O)OP(=O)(O)OC[C@H]2O[C@@H](O)C(O)C2O)C(O)C1O` (stereo partly drawn) [ADP-ribose, adenosine diphosphate ribose] the viability at 1.6 µM [1] was roughly 18%, the “maximum lethal dose (concentration at which almost all cells were killed)” value (AsPC-1 cells [2]; AsPC-1, 24 hours, MTT) was 32 µM and the “cancer cell growth under a microscope” value (AsPC-1 cells [2]; AsPC-1, ADP-ribose treated vs control, FIG. 4A) was “inhibited from growing and killed”. For the same compound, the IC50 (AsPC-1 cells [2]; Homo sapiens, ASPC1, 24 h, read-out: half-lethal dose (concentration at which about half of the cells were killed)) was roughly 2 µM, the “survival rate of cancer cells” value (U-87MG cells [3]) was “about 12.3%” and the “maximum lethal dose (concentration at which almost all cells were killed)” value (Caki-1 cells [4]; Caki-1, 24 hours, MTT) was 32 µM. For the same compound, the “cancer cell growth under a microscope” value (Caki-1 cells [4]; Caki-1, ADP-ribose treated vs control, FIG. 8A) was “inhibited from growing and killed”, the IC50 (Caki-1 cells [4]; Homo sapiens, CAKI-1, 24 h, read-out: half-lethal dose (concentration at which about half of the cells were killed)) was roughly 16 µM and the “amount of ADP-ribose in cells compared to the control group” value (Caki-1 cells [5]) was “remarkably increased significantly”. For the same compound, the “amount of ADP-ribose in cells compared to the control group” value (U-87MG cells [6]) was “remarkably increased significantly”, the “amount of ADP-ribose in cells compared to the control group” value (H1975 cells) was “remarkably increased significantly” and the “amount of ADP-ribose in cells compared to the control group” value (AsPC-1 cells [7]) was “remarkably increased significantly”. The “amount of ADP-ribose in cells compared to the control group” value (HCT116 cells) was “remarkably increased significantly”, the “reduction of tumor volume compared to the control group” value [8, 10] was “about 72.6%” and the “reduction of tumor volume compared to the group treated with 2 Gy dose of radiation alone” value [8, 10] was “about 56.1%”. The final tumor volume ([8]; ADP-ribose 20 mg/kg subcutaneous 3 times a week + 2 Gy radiation, control about 2336.1, 2 Gy alone about 1459.6) was “about 640.4 mm^3”, the “amount of ADP-ribose in the cells over time compared to the control group” value (U-87MG cells [9]) was “maintained a significant (P<0.001) increase” and the “amount of ADP-ribose in cells compared to the control group” value (MDA-MB-231 cells) was “remarkably increased significantly”.

— patent publication US20230372382A1, “USE OF ADENOSINE DIPHOSPHATE RIBOSE FOR ADJUVANT THERAPY WITH RADIATION AND/OR ANTI-CANCER TREATMENT” (PearlsInMires Co., Ltd., priority 2021, published 2023)
